Tested on: venous blood from rhesus monkeys
Assay: Hemolytic activity in vitro (standard hemolysis test)
Type: cell-based
Conditions: for Hemolysis (%): fresh heparinized rhesus monkey blood, 37° C., 3 hours, absorption at 540 nm, % of maximum inducible hemolysis (distilled water = 100%), dilutions 1600-3.125 mg/l, concentration behind the value not stated; for hemolysis in the standard hemolysis test (in words): rhesus monkey blood
Experimental: 2) Freshly removed venous blood from rhesus monkeys is used to measure the hemolytic activity. The blood is collected in heparinized tubes and 200 μl aliquots are distributed over 12 polyethylene tubes. 200 μl of distilled water are added to one aliquot, which serves as 100% standard, and another is mixed with 200 μl of physiological saline (0.9% NaCl) (0% standard). 200 μl portions of substance dilutions in physiological saline containing 1600, 800, 400, 200, 100, 50, 25, 12.5, 6.25 and 3.125 mg/l are distributed over the other tubes. All the tubes are cautiously swirled and incubated at 37° C. for 3 hours. Subsequently 100% standard is made up with 5 ml of distilled water, and the others are each made up with 5 ml of physiological saline and centrifuged at 700 g for 5 minutes.
The hemolysis is determined by measuring the absorption of the supernatant in a spectrophotometer at a wavelength of 540 nm. The absorption of the standard with complete hemolysis (distilled water) is set equal to 100%. The absorptions of the test product dilutions and of the 0% standard are measured and reported as a percentage of the maximum inducible hemolysis.

Row | Structure (SMILES) | Hemolysis (%) | hemolysis in the standard hemolysis test (in words)
1 | CCCCCCCCCCCCC(=O)NC(CC(=O)O)C(=O)NC1C(=O)N2CCCCC2C(=O)NC(C(C)C(=O)O)C(=O)NC(CC(=O)O)C(=O)NCC(=O)NC(CC(=O)O)C(=O)NCC(=O)NC(C(C)N)C(=O)NC(C(C)C)C(=O)N2CCCC2C(=O)NC1C (centres unmarked) [Example 1, Tridecanoyl Derivative of A 1437 Cyclic Peptide] | 19.6 | 
2 | CCCCCCCCCCC(=O)NC(CC(=O)O)C(=O)NC1C(=O)N2CCCCC2C(=O)NC(C(C)C(=O)O)C(=O)NC(CC(=O)O)C(=O)NCC(=O)NC(CC(=O)O)C(=O)NCC(=O)NC(C(C)N)C(=O)NC(C(C)C)C(=O)N2CCCC2C(=O)NC1C (centres unmarked) [Example 6] | 16.5 | 
3 | CCCCCCCCCCCC(=O)NC(CC(=O)O)C(=O)NC1C(=O)N2CCCCC2C(=O)NC(C(C)C(=O)O)C(=O)NC(CC(=O)O)C(=O)NCC(=O)NC(CC(=O)O)C(=O)NCC(=O)NC(C(C)N)C(=O)NC(C(C)C)C(=O)N2CCCC2C(=O)NC1C (centres unmarked) [Example 7] | 25.7 | 
4 | CCCCCCCCCCCCCC(=O)NC(CC(=O)O)C(=O)NC1C(=O)N2CCCCC2C(=O)NC(C(C)C(=O)O)C(=O)NC(CC(=O)O)C(=O)NCC(=O)NC(CC(=O)O)C(=O)NCC(=O)NC(C(C)N)C(=O)NC(C(C)C)C(=O)N2CCCC2C(=O)NC1C (centres unmarked) [Example 8] | 19.3 | 
5 | CCCCCCCCCCCCCCC(=O)NC(CC(=O)O)C(=O)NC1C(=O)N2CCCCC2C(=O)NC(C(C)C(=O)O)C(=O)NC(CC(=O)O)C(=O)NCC(=O)NC(CC(=O)O)C(=O)NCC(=O)NC(C(C)N)C(=O)NC(C(C)C)C(=O)N2CCCC2C(=O)NC1C (centres unmarked) [Example 9] | 22.8 | 
6 | CC(C)CCCCCCCCCCC(=O)NC(CC(=O)O)C(=O)NC1C(=O)N2CCCCC2C(=O)NC(C(C)C(=O)O)C(=O)NC(CC(=O)O)C(=O)NCC(=O)NC(CC(=O)O)C(=O)NCC(=O)NC(C(C)N)C(=O)NC(C(C)C)C(=O)N2CCCC2C(=O)NC1C (centres unmarked) [Example 14] | 22.9 | 
7 | CCCCCCCc1ccc(C(=O)NC(CC(=O)O)C(=O)NC2C(=O)N3CCCCC3C(=O)NC(C(C)C(=O)O)C(=O)NC(CC(=O)O)C(=O)NCC(=O)NC(CC(=O)O)C(=O)NCC(=O)NC(C(C)N)C(=O)NC(C(C)C)C(=O)N3CCCC3C(=O)NC2C)cc1 (centres unmarked) [Example 49] | 0.0 | 
8 | CC(C)C1NC(=O)C(C(C)N)NC(=O)CNC(=O)C(CC(=O)O)NC(=O)CNC(=O)C(CC(=O)O)NC(=O)C(C(C)C(=O)O)NC(=O)C2CCCCN2C(=O)C(NC(=O)C(CC(=O)O)NC(=O)c2ccc(CCc3ccc(-c4ccccc4)cc3)cc2)C(C)NC(=O)C2CCCN2C1=O (centres unmarked) [Example 55] | 0.5 | virtually no evidence of hemolysis
9 | CC(C)C1NC(=O)C(C(C)N)NC(=O)CNC(=O)C(CC(=O)O)NC(=O)CNC(=O)C(CC(=O)O)NC(=O)C(C(C)C(=O)O)NC(=O)C2CCCCN2C(=O)C(NC(=O)C(CC(=O)O)NC(=O)c2ccc(CCc3ccc(CCc4ccccc4)cc3)cc2)C(C)NC(=O)C2CCCN2C1=O (centres unmarked) [Example 56] | 0.4 | virtually no evidence of hemolysis
